Assay results taken from US5266600A (priority 1992, dated 1993).
Values after ≈ are worked out from the molar mass of the structure shown. “Also recorded” adds a separate entry of the source. Where two headings read alike, the source gives them in different places.

Assays:
[1] = Solubility; assay type: physicochemical
Description: BU-4641V was isolated as a white amorphous powder. […] It gave positive responses to iodine vapor, sulfuric acid and ferric chloride tests, but negative responses to Rydon-Smith, Dragendorff and anthrone-sulfuric acid tests on silica gel TLC plate.

[2] = test system: HIV-1 IIIb; assay: Acute infection of HIV-1 IIIb in CEM-SS cells; assay type: cell-based
[3] = target: T1, HIV envelope protein gp120 / T cells (UniProt P01730+P04578); assay: Binding of HIV envelope protein gp120 to T cells
T1 construct: CD4 native on cells

[4] = Cytotoxicity in virus-uninfected MT-4 cells; assay type: cell-based; details: human; virus-uninfected MT-4 cells
[5] = test system: tubulin (3XMTP); assay: Tubulin polymerization assay using thrice-cycled microtubule protein (3XMTP), spectrophotometric; assay type: biochemical, calf
Experimental: Briefly, tubulin was purified from calf brain extracts by three cycles of polymerization at 35° C. in the presence of 1 mM GTP+2.5 mM ATP, and depolymerization at 4° C. in PM buffer pH 6.6 (0.1 M PIPES, […]) containing various concentrations of glycerol as described previously (Williams R. C. and J. C. Lee 1982 Methods in Enzymology 85: pp. 376-385). The tubulin polymerization assay was carried out using 3XMTP in PM buffer containing 0.4 M of glycerol in the presence of test-compound. The polymerization was quantitated by Shimadzu spectrophotometer (Model No. UV 2100U) at 350 nm. Effect of compound on the kinetics of tubulin polymerization was followed for 20 minutes using taxol as a positive control and DMSO as a negative control. Compound in PM buffer +0.4 M glycerol (no MTP) served as buffer (negative) controls.

[6] = test system: tubulin bundling in human colon cells; assay: Immunofluorescence study of tubulin bundling in human colon cells; assay type: cell-based
[7] = test system: tubulin (3XMTP); assay: Electron microscopic observation of microtubule assembly in 3XMTP; assay type: biochemical, calf; details: 100 μM
[8] = Cytotoxicity in CEM-SS cells; assay type: cell-based; details: human
[9] = test system: HTLV-III (human T cell lymphotropic virus type III); assay: Inhibition of HTLV-III infection in MT-4 cells (MTT); assay type: cell-based; details: for EC50: HTLV-III infected MT-4 cells, 5 days, MTT
Experimental: Human T cell lymphotropic virus type III (HTLV-III)/lymphadenopathy-associated virus is the etiologic agent of the acquired immune deficiency syndrome (AIDS) and AIDS-related complex. […] (Nakashima, H. et al., Antimicrobial Agents & Chemotherapy, 30, pp 933-937, 1986).
An HTLV type I-Carrying cell line, MT-4, was maintained in RPMI 1640 medium supplemented with 10% fetal calf serum, 100 IU of penicillin G per ml and 100 μg of streptomycin per ml at 37° C. in a CO2 incubator. HTLV-III8 was obtained from the supernatant of the Molt-4/HTLV-III8 culture. The titer of this virus preparation was 3.0×10^5 PFU/ml. MT-4 cells were infected with 0.01 MOI of HTLV-III8. The infected cells resuspended in fresh medium were mixed with a test sample solution (or medium itself for control) to give 2.5×10^4 cells in a 200 μl volume and incubated at 37° C. for 5 days. The surviving cells were measured by the MTT (3-(4,5-dimethylthiazol-2-yl)-2,5-diphenyltetrazolium bromide) method (R. Pauwels et al., J. Virol Methods, 20, pp 309-321, 1988). [formula]
Fifty percent effective concentration (EC50) was obtained from the inhibition rates.

[10] = test system: syncytium formation between HIV gp-120 expressing BSC-1 cells and HeLa-T4 (CD4) cells; assay: Syncytium formation inhibition assay; assay type: cell-based; details: for Syncytium inhibitory activity ID50: 3-5 hours, 37° C.
[11] = test system: MT-4 cells; assay: Cytotoxicity in virus-uninfected MT-4 cells; assay type: cell-based; details: human, mt-4 cells
[12] = test system: tubulin (3XMTP); details: cited from earlier work

Question: Which results are given for `CC1=CCC2(C)C(=O)C(O)=C(C(C)CO)C2CC=C(C)C(O)CCC(C)=CCC1` (stereo not drawn) [BU-4641V]?
Answer: solubility [1]: soluble in dimethyl sulfoxide, methanol, methylene chloride, ethyl acetate and alkaline water (such as 0.1 N NaOH); also recorded: insoluble in hexane and water; blocking of acute HIV-1 IIIb infection (in words) [2]: only partially blocks the acute infection of HIV-1 IIIb; IC50 ([2]; acute infection of HIV-1 IIIb): 10 µM; binding of HIV envelope protein gp120 to T cells [3]: does not affect the binding of HIV envelope protein gp120 to T cells; CC50 [4]: 37.8 µg/mL (≈ 93.9 µM); promotion of tubulin polymerization (in words) [5]: promotes tubulin polymerization in a dose dependent manner; also recorded: reversibly stimulates polymerization of purified tubulin protein; also recorded: promote tubulin polymerization; initial rate of tubulin polymerization (in words) ([5]; compared to taxol): slower initial rate; reversal of tubulin polymerization by CaCl2 (in words) ([5]; treatment with CaCl2): can be reversed by treatment with CaCl2; tubulin bundling around nuclei (in words) [6]: induces tubulin bundling around nuclei; microtubule assembly by electron microscopy (in words) [7]: confirmed by electron microscopic observation of microtubule assembly; CC50 [8]: 84 µM; EC50 [9]: 0.78 µg/mL (≈ 1.94 µM); activity against HTLV-III (in words) ([9]; compared with dextran sulfate): more active than dextran sulfate against HTLV-III; Syncytium inhibitory activity ID50 [10]: 0.46 µg/mL; syncytium inhibitory activity (in words) ([10]; compared with dextran sulfate): more potent syncytium inhibitory activity; also recorded: stronger syncytium inhibitory property than that of dextran sulfate

Question: For Dextran sulfate [reference compound], which CC50 [11] is on record?
Answer: > 1000 µg/mL

Question: And the EC50 [9]?
Answer: 1.4 µg/mL

Question: And the “Syncytium inhibitory activity ID50” value [10]?
Answer: 12.0 µg/mL

Question: Which “promotion of tubulin polymerization (in words), known” value ([12]; taxol) does the source give for `CC(=O)O[C@H]1C(=O)[C@@]2(C)[C@H]([C@H](OC(=O)c3ccccc3)[C@]3(O)C[C@H](OC(=O)[C@H](O)[C@@H](NC(=O)c4ccccc4)c4ccccc4)C(C)=C1C3(C)C)[C@]1(OC(C)=O)CO[C@@H]1C[C@@H]2O` [Taxol, reference compound] here?
Answer: promote tubulin polymerization

Question: What about the “tubulin bundling around nuclei (in words)” value [6] of the same compound?
Answer: induces tubulin bundling around nuclei

Question: Which “promotion of tubulin polymerization (in words), known” value ([12]; GTP) does the source give for `Nc1nc2c(ncn2[C@@H]2O[C@H](COP(=O)(O)OP(=O)(O)OP(=O)(O)O)[C@@H](O)[C@H]2O)c(=O)[nH]1` [GTP] here?
Answer: known to reversibly promote tubulin polymerization; also recorded: only active on tubulin in the presence of microtubule associated proteins (MAPS)
